Data on 8 molecules can be found in article PMC8052950 (Journal of medicinal chemistry, 2021).

The pIC50 is −log10 of the IC50, conventionally taken in molar units.

Experiment [1] has as its target WVpro (West Nile virus protease) (West Nile virus, UniProt Q9Q6P4). The experiment can be described thus: WVpro enzyme inhibition assay. In kind it is biochemical.
Experiment [2] concerns the target DV2pro (protease of dengue serotype-2) (Dengue virus type 2, UniProt P29990). Kind of experiment: DV2pro enzyme inhibition assay. It is filed as biochemical, dengue virus serotype-2. The note with it: read-out: IC50 against DV2pro; standard errors <30%.
In a further experiment the test system is ZIKV-FLR. The experiment can be described thus: Cellular anti-ZIKV activity in U87 cells. It is filed as cell-based, Zika virus. The note with it: for EC68 against ZIKV: in cells, values printed in nM in the text.
Experiment [3] has as its system dengue virus (serotype-2, strain K0049). The note with it: comparable activities; cited from earlier work.
The test system of experiment [4] is 5 selected human proteases. The note with it: at 10 μM; cited from earlier work.
In the next experiment the test system is ZIKV strain HN16. The note with it: comparable activities; cited from earlier work.
For another experiment, the system named is ZIKV. The note with it: cited from earlier work.

Each structure is given as a SMILES string. pIC50: −log10 of the molar value. Counter-ions that a name gives are not always drawn.

Chain of WVpro (West Nile virus protease) (Q9Q6P4 1424-1470): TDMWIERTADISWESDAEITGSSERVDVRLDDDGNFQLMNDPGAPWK
Chain of WVpro (West Nile virus protease) (Q9Q6P4 1506-1675): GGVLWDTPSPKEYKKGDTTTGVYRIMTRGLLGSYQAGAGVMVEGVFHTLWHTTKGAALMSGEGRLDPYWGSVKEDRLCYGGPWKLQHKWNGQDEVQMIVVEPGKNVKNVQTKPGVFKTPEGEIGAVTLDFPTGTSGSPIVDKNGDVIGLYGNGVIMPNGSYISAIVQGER
Chain of DV2pro (protease of dengue serotype-2) (P29990 1476-1645): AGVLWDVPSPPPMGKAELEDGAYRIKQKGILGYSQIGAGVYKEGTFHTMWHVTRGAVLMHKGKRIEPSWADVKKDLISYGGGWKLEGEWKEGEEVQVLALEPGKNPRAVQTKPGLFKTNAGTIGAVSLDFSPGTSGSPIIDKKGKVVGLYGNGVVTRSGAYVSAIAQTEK
Chain of DV2pro (protease of dengue serotype-2) (P29990 1394-1440): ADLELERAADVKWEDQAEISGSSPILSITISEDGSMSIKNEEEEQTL

With `Brc1ccc(-c2ncc(OCC3CCNCC3)nc2-c2ccc(Br)cc2)cc1` [Compound 1, 2,3-bis(4-Bromophenyl)-5-(piperidin-4-ylmethoxy)pyrazine hydrochloride], in experiment [1], the negative-log IC50 (pIC50) is less than 4.30. Regarding `NCc1ccc(-c2cc(CNCC3CCNCC3)sc2-c2ccc(CN)cc2)cc1` [Compound 20, ((5-(((Piperidin-4-ylmethyl)amino)methyl)thiophene-2,3-diyl)bis(4,1-phenylene))dimethanamine Hydrochloride], the pIC50 in experiment [1] and in experiment [2] was less than 4.30 each time. The molecule `NCc1ccc(-c2ncc(OCC3CCNCC3)nc2-c2ccc(Oc3ccccc3)cc2)cc1` [Compound 44, (4-(3-(4-Phenoxyphenyl)-5-(piperidin-4-ylmethoxy)pyrazin-2-yl)phenyl)methanamine hydrochloride] had a pIC50 in experiment [1] of less than 4.30. The same measure, in the same setting: under `NCc1ccc(-c2ncc(OCC3CCNCC3)nc2-c2ccc(-c3ccncc3)cc2)cc1` [Compound 45, (4-(5-(Piperidin-4-ylmethoxy)-3-(4-(pyridin-4-yl)phenyl)pyrazin-2-yl)phenyl)methanamine hydrochloride] stands less than 4.30; under `NCc1ccc(-c2ncc(OCC3CCNCC3)nc2-c2ccc(-c3cn[nH]c3)cc2)cc1` [Compound 46], 6.92. In the case of `NCc1ccc(-c2ncc(OCC3CCNCC3)nc2-c2ccc(-c3ccoc3)cc2)cc1` [Compound 47, (4-(3-(4-(Furan-3-yl)phenyl)-5-(piperidin-4-ylmethoxy)pyrazin-2-yl)phenyl)methanamine hydrochloride], in the experiment with ZIKV-FLR (Zika virus, U-87 MG, 48 h, read-out: ZIKV-FLR EC68), the EC68 fell in the range of 0.3 to 0.6 µM. Moreover, in the experiment with ZIKV-FLR, the “EC68 against ZIKV” value lay within 300 to 600 nM. Further, the “Inhibition of replication of dengue virus (serotype-2, strain K0049)” value in experiment [3] is reported as “potently inhibit replication”. Also, the “Inhibition of 5 selected human proteases” value in experiment [4] is on record as “did not inhibit”. The “Inhibition of replication of ZIKV strain HN16” value in the experiment on ZIKV strain HN16 was “potently inhibit replication”. Besides, the “In vivo antiviral activity” value with ZIKV (mouse model of ZIKV infection) was “strong in vivo antiviral activity”. In addition, the “Survival of the experimental mice” value in the experiment on ZIKV (mouse, 30 mg/kg for 3 days) was “significantly prolonged survivals”.

Turning to `NCc1ccc(-c2ncc(OCC3CCNCC3)nc2-c2ccc(O)cc2)cc1` [Compound 50, 4-(3-(4-(Aminomethyl)phenyl)-6-(piperidin-4-ylmethoxy)pyrazin-2-yl)phenol hydrochloride], the “Inhibition of ZIKV replication” value in the experiment on ZIKV-FLR (at 10 μM) is “did not inhibit ZIKV replication”. As for `NCc1ccc(-c2ncc(OCC3CCNCC3)nc2-c2ccc(C3CCOCC3)cc2)cc1` [Compound 103, (4-(5-(Piperidin-4-ylmethoxy)-3-(4-(tetraHydro-2H-pyran-4-yl)phenyl)pyrazin-2-yl)phenyl)methanamine hydrochloride], in the experiment with ZIKV-FLR, the “EC68 against ZIKV” value was 300 to 600 nM.
